Active and inactive are the calls of the source. No cut-off for these calls is given here.
Assays:
[1] = Clearance in mouse at 2 mg/kg, iv; type: ADME, organism-based; settings: in vivo
[2] = Tmax in mouse at 50 mg/kg, po; type: ADME, organism-based; settings: in vivo
[3] = tested on: MDA-MB-231; assay: Induction of apoptosis in human MDA-MB-231 cells assessed as necrotic cells at 10 uM incubated for 48 hrs by Annexin V-FITC/PI staining based flow cytometry (reference value: 1.42 %); type: functional
[4] = tested on: MDA-MB-231; assay: Antitumor activity against human MDA-MB-231 cells xenografted in BALB/c mouse assessed as tumor growth inhibition at 100 mg/kg/day, ip for 3 weeks and measured every 3 days by caliper method; type: functional, organism-based
[5] = tested on: CAL-51; assay: Antimigratory activity against human CAL-51 cells assessed as inhibition in cell migration at 30 uM incubated for 16 hrs by crystal violet staining microscopy based transwell migration assay; type: functional
[6] = tested on: HT-29; assay: Induction of apoptosis in human HT-29 cells assessed as increase in PARP cleavage at 30 uM measured after 48 hrs by western blot analysis; type: functional, cell-based
[7] = tested on: MDA-MB-231; assay: Induction of apoptosis in human MDA-MB-231 cells assessed as late apoptotic cells at 10 uM incubated for 48 hrs by Annexin V-FITC/PI staining based flow cytometry (reference value: 1.96 %); type: functional
[8] = tested on: MDA-MB-231; assay: Antimetastatic activity against human MDA-MB-231 cells xenografted in BALB/c mouse assessed as decrease in plasma S1P levels at 50 mg/kg, ip for 28 days; type: functional, organism-based; settings: time 28.0 day
[9] = tested on: MDA-MB-231; assay: Antimetastatic activity against human MDA-MB-231 cells […] assessed as inhibition of FSCN1 phosphorylation at 30 uM incubated for 2 to 12 hrs by western blot analysis; type: functional, cell-based; settings: time 2-12 hrs
[10] = tested on: HT-29; assay: Induction of cell cycle arrest at G0/G1 phase in human HT-29 cells assessed as reduction in CDK6 expression at 10 to 30 uM incubated for 24 hrs by Western blot analysis; type: functional, cell-based; settings: dose 10-30 µM
[11] = tested on: HT-29; assay: Induction of cell cycle arrest at G0/G1 phase in human HT-29 cells assessed as reduction in cyclinD1 expression at 10 to 30 uM incubated for 24 hrs by Western blot analysis; type: functional, cell-based; settings: dose 10-30 µM
[12] = tested on: MDA-MB-231; assay: Induction of apoptosis in human MDA-MB-231 cells assessed as viable cells at 30 uM incubated for 48 hrs by Annexin V-FITC/PI staining based flow cytometry (reference value: 94.3 %); type: functional; settings: read-out: Activity
[13] = tested on: HT-29; assay: Induction of cell cycle arrest at G1 phase in human HT-29 cells assessed as increase in P21 expression at 30 uM incubated for 24 hrs by Western blot analysis; type: functional, cell-based
[14] = tested on: HT-29; assay: Induction of cell cycle arrest at G0/G1 phase in human HT-29 cells assessed as reduction in cyclinE1 expression at 10 to 30 uM incubated for 24 hrs by Western blot analysis; type: functional, cell-based; settings: dose 10-30 µM
[15] = Cmax in mouse at 50 mg/kg, po; type: ADME, organism-based; parameters: dose 50 mg/kg, route po; settings: in vivo
[16] = AUClast in mouse at 2 mg/kg, iv; type: ADME, organism-based; parameters: time 0 - last, dose 2 mg/kg, route iv; settings: in vivo
[17] = tested on: MDA-MB-231; assay: Antimetastatic activity against human MDA-MB-231 cells […] assessed as downregulation of MMP-9 at 30 uM incubated for 2 to 12 hrs by western blot analysis; type: functional, cell-based; settings: time 2-12 hrs
[18] = tested on: MDA-MB-231; assay: Antimigratory activity against human MDA-MB-231 cells assessed as reduction in cell migration at 20 uM incubated for 8 hrs by crystal violet staining microscopy based transwell migration assay; type: functional
[19] = tested on: MDA-MB-231; assay: Induction of apoptosis in human MDA-MB-231 cells assessed as viable cells at 10 uM incubated for 48 hrs by Annexin V-FITC/PI staining based flow cytometry (reference value: 94.3 %); type: functional; settings: read-out: Activity
[20] = tested on: MDA-MB-231; assay: Induction of apoptosis in human MDA-MB-231 cells assessed as necrotic cells at 30 uM incubated for 48 hrs by Annexin V-FITC/PI staining based flow cytometry (reference value: 1.42 %); type: functional
[21] = Half life in mouse at 2 mg/kg, iv; type: ADME, organism-based; settings: in vivo
[22] = tested on: MDA-MB-231; assay: Induction of cell cycle arrest at G0/G1 phase in human MDA-MB-231 cells at 20 uM incubated for 24 hrs by PI staining based flow cytometry; type: functional
[23] = tested on: MDA-MB-231; assay: Antimetastatic activity against human MDA-MB-231 cells xenografted in BALB/c mouse assessed as decrease in plasma S1P levels at 75 mg/kg, ip for 28 days; type: functional, organism-based; settings: time 28.0 day
[24] = tested on: MDA-MB-231; assay: Induction of apoptosis in human MDA-MB-231 cells assessed as early apoptotic cells at 10 uM incubated for 48 hrs by Annexin V-FITC/PI staining based flow cytometry (reference value: 2.35 %); type: functional
[25] = Toxicity in BALB/c mouse xenografted with human MDA-MB-231 cells assessed as body weight change at 50 to 75 mg/kg, ip administrated for 28 days; type: organism-based; settings: in vivo, 672 h, dose 50-75 mg/kg, time 28 day
[26] = tested on: HT-29; assay: Induction of cell cycle arrest at G0/G1 phase in human HT-29 cells assessed as reduction in cyclinA expression at 10 to 30 uM incubated for 24 hrs by Western blot analysis; type: functional, cell-based; settings: dose 10-30 µM
[27] = tested on: MDA-MB-231; assay: Induction of apoptosis in human MDA-MB-231 cells assessed as late apoptotic cells at 30 uM incubated for 48 hrs by Annexin V-FITC/PI staining based flow cytometry (reference value: 1.96 %); type: functional
[28] = Half life in mouse at 50 mg/kg, ip; type: ADME, organism-based; settings: in vivo
[29] = tested on: HT-29; assay: Induction of apoptosis in human HT-29 cells assessed as increase in caspase 3 cleavage at 30 uM measured after 48 hrs by western blot analysis; type: functional, cell-based
[30] = tested on: HT-29; assay: Induction of cell cycle arrest at G0/G1 phase in human HT-29 cells assessed as decrease in p-Rb expression at 10 to 30 uM incubated for 24 hrs by Western blot analysis; type: functional, cell-based; settings: dose 10-30 µM
[31] = tested on: MDA-MB-231; assay: Antimigratory activity against human MDA-MB-231 cells assessed as inhibition of cell migration in human MDA-MB-231 cells at 20 uM incubated for 15 hrs by wound healing assay; type: functional, cell-based
[32] = Bioavailability in mouse at 50 mg/kg, ip; type: ADME, organism-based; settings: in vivo
[33] = AUClast in mouse at 50 mg/kg, po; type: ADME, organism-based; parameters: time 0 - last, dose 50 mg/kg, route po; settings: in vivo
[34] = tested on: HT-29; assay: Induction of apoptosis in human HT-29 cells at 30 uM incubated for 48 hrs by Annexin V-FITC/PI staining based flow cytometry relative to control; type: functional
[35] = tested on: HT-29; assay: Induction of cell cycle arrest in human HT-29 cells assessed as accumulation at G0/G1 phase at 10 uM incubated for 24 hrs by PI staining based flow cytometry; type: functional
[36] = Half life in mouse at 50 mg/kg, po; type: ADME, organism-based; settings: in vivo
[37] = Toxicity in BALB/c mouse xenografted with human HT-29 cells assessed as change in body weight at 50 mg/kg/day, ip for 3 weeks and measured every 3 days; type: organism-based; settings: in vivo, 504 h
[38] = Tmax in mouse at 50 mg/kg, ip; type: ADME, organism-based; settings: in vivo
[39] = tested on: HT-29; assay: Antitumor activity against human HT-29 cells xenografted in BALB/c mouse assessed as tumor growth inhibition at 50 mg/kg/day, ip for 3 weeks and measured every 3 days by caliper method; type: functional, organism-based
[40] = tested on: MDA-MB-231; assay: Antitumor activity against human MDA-MB-231 cells xenografted in BALB/c mouse assessed as inhibition in lung metastasis at 75 mg/kg, ip treated for 28 days by H and E staining based assay; type: functional, organism-based; settings: time 28.0 day
[41] = tested on: MDA-MB-231; assay: Induction of apoptosis in human MDA-MB-231 cells assessed as early apoptotic cells at 30 uM incubated for 48 hrs by Annexin V-FITC/PI staining based flow cytometry (reference value: 2.35 %); type: functional
[42] = tested on: MDA-MB-231; assay: Antimetastatic activity against human MDA-MB-231 cells […] assessed as inhibition of NF-kappaB p65 phosphorylation at 30 uM incubated for 2 to 12 hrs by Western blot analysis; type: functional, cell-based; settings: time 2-12 hrs
[43] = Cmax in mouse at 50 mg/kg, ip; type: ADME, organism-based; parameters: dose 50 mg/kg, route ip; settings: in vivo
[44] = Oral bioavailability in mouse at 50 mg/kg; type: ADME, organism-based; settings: in vivo
[45] = tested on: HT-29; assay: Induction of apoptosis in human HT-29 cells assessed as increase in caspase 8 cleavage at 30 uM measured after 48 hrs by western blot analysis; type: functional, cell-based
[46] = tested on: HT-29; assay: Induction of cell cycle arrest in human HT-29 cells assessed as accumulation at G0/G1 phase at 30 uM incubated for 24 hrs by PI staining based flow cytometry; type: functional
[47] = tested on: MDA-MB-231; assay: Antimetastatic activity against human MDA-MB-231 cells […] assessed as upregulation of phosphorylated beta-catenin at 30 uM incubated for 2 to 12 hrs by western blot analysis; type: functional, cell-based; settings: time 2-12 hrs
[48] = AUClast in mouse at 50 mg/kg, ip; type: ADME, organism-based; parameters: time 0 - last, dose 50 mg/kg, route ip; settings: in vivo

For `Cc1cc(OCc2ccc(CN3CCC[C@@H]3CO)cc2)cc(CS(=O)(=O)c2ccccc2)c1Br`, the clearance [1] was 4.87 L/h/kg, the Tmax [2] was 0.83 h and the Activity [3] was 3.69%. For the same compound, the Activity [4] was “Active”, the Activity [5] was “Active” and the Activity [6] was “Active”. For the same compound, the Activity [7] was 9.16%, the Activity [8] was “Active” and the Activity [9] was “Active”. For the same compound, the Activity [10] was “Active”, the Activity [11] was “Active” and the viability at 30 µM [12] was 36.4%. For the same compound, the Activity [13] was “Active”, the Activity [14] was “Active” and the Cmax [15] was 0.171 µg/mL. For the same compound, the AUC(0-t) [16] was 0.408 µg·h/mL, the Activity [17] was “Active” and the Activity [18] was “Active”. The viability at 10 µM [19] was 65.4%, the Activity [20] was 6.82% and the half-life [21] was 2.23 h. For the same compound, the Activity [22] was “Active”, the Activity [23] was “Active” and the Activity [24] was 3.67%. For the same compound, the Activity [25] was “Non-Toxic”, the Activity [26] was “Active” and the Activity [27] was 24.5%. The half-life [28] was 4.2 h, the Activity [29] was “Active” and the Activity [30] was “Active”. For the same compound, the Activity [31] was “Active”, the bioavailability [32] was 79% and the AUC(0-t) [33] was 0.242 µg·h/mL. For the same compound, the Activity [34] was 50%, the Activity [35] was “Active” and the half-life [36] was 8.13 h. The Activity [37] was “Non-Toxic”, the Tmax [38] was 0.18 h and the Activity [39] was “Active”. For the same compound, the Activity [40] was “Active”, the Activity [41] was 32.2% and the Activity [42] was “Active”. The Cmax [43] was 7.86 µg/mL, the bioavailability [44] was 2.38% and the Activity [45] was “Active”. For the same compound, the Activity [46] was “Active”, the Activity [47] was “Active” and the AUC(0-t) [48] was 8.06 µg·h/mL.

From ChEMBL document CHEMBL5154877, “Novel Sphingosine Kinase 1 Inhibitor Suppresses Growth of Solid Tumor and Inhibits the Lung Metastasis of Triple-Negative Breast Cancer” (J Med Chem, 2022)
